For 45 compounds, GI50 and TGI results are on record in PubChem BioAssay (NCI).

Several values for one entry are separate records, joined by “and”; a condition that tells them apart may be missing. Equal values may be shown once.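 Cultured in 96-well plates, cells were exposed to test compound for 48 hours across five concentrations. GI50 = concentration required for 50% inhibition of growth. Definition used: TGI = concentration required for complete inhibition of growth.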

In this experiment the test system is MDA-MB-468 breast. In words: NCI anticancer screen, dose series, 48 h.

`OCc1ccc(N2CCCC2c2ccccc2)cc1Cl` (stereo not drawn): the GI50 was 117 nM and the TGI was 448 nM. As for `Cc1ccc(/C=N\NC(=O)c2[nH]c3ccc(F)cc3c2-c2ccccc2)cc1`, the GI50 was 24 nM and the TGI is 67.4 nM. `C=CC(=O)Nc1cccc(Oc2nc(Nc3ccc(N4CCN(C)CC4)cc3)nc3ccsc23)c1`: the GI50 was 267 nM and 570 nM; the TGI was 1750 nM and 3360 nM. On to `c1cnn2ncc(-c3ccnc(NCCCN4CCOCC4)n3)c2c1`, for which the GI50 is 3450 nM and the TGI turned out to be 10000 nM. Consider `CC(C)C[C@H](NC(=O)CNC(=O)c1cc(Cl)ccc1Cl)B1OC(=O)CC(CC(=O)O)(C(=O)O)O1` (stereo partly drawn), for which the GI50 was 17 nM and the TGI came to 38.5 nM. On to `COc1ccc2cc1Oc1ccc(cc1)C[C@H]1c3c(cc4c(c3Oc3cc5c(cc3OC)CCN(C)[C@@H]5C2)OCO4)CCN1C`, for which the GI50 was 593 nM and the TGI worked out at 2310 nM.

On to `CCc1ccc2c(c1)N(CCO)C1=C(C(=O)OC1)C2c1cccc(Br)c1` (stereo not drawn), for which the GI50 is 164 nM and the TGI was found to be 660 nM. For `CC1=C2[C@@H](CC1)[C@]1(C)O[C@@](c3ccccc3)(C[C@H]1OC(=O)CO)[C@H]2OC(=O)/C=C/c1ccccc1` the same measures were 17900 nM and 46000 nM. As to `O=S(=O)(Nc1cc(Sc2cccc3cccnc23)c(O)c2ccccc12)c1ccc(F)cc1`, the GI50 was 1800 nM and the TGI came out at 4080 nM. Regarding `CC(C)=CCc1c(O)c(CC=C(C)C)c2c(c1O)C(=O)C1=C[C@@H]3C[C@H]4C(C)(C)O[C@@](C/C=C(\C)C(=O)O)(C3=O)[C@@]14O2`, the GI50 was 24100 nM and the TGI is 48600 nM.

For `C/C(=C\c1ccc2ccccc2c1)[N+](=O)[O-]`, the GI50 was 1560 nM and the TGI worked out at 3060 nM. With `CCCCCCCCCCCCCCCCCC[n+]1ccc2c(C)c3c(c(C)c2c1)c1cc(O)ccc1n3CC`, the GI50 is 628 nM and the TGI was 4110 nM.

With `CCOc1ccccc1C(=O)N1CCN(c2cc(Cl)cc(Cl)c2)CC1`, the GI50 is 29.2 nM and the TGI was 2870 nM. On to `CN(C)CCCn1c(=O)c2ccccc2c2ccccc21`, for which the GI50 is 6180 nM and the TGI came out at 20100 nM. In the case of `CN[C@@H](C)C(=O)N[C@H](C(=O)N1CCC[C@H]1C(=O)Nc1sc(-c2ncco2)nc1-c1ccccc1)C1CCCCC1`, the GI50 was 11400 nM and the TGI was 35700 nM. The like results for `O=C1OCC2=C1C(c1ccccc1)c1cc3c(cc1N2)OCO3` (stereo not drawn) were, in that order, 27 nM and 600 nM. As for `O=C1c2c(c3c4ccccc4[nH]c3c3ccc4ccccc4c23)C(=O)N1CCN1CCNCC1`, the GI50 was 1650 nM and the TGI came out at 3300 nM. Consider `C#Cc1nc(/C=C/CCCCCCC(=O)NO)cs1`, for which the GI50 was 2130 nM and the TGI is 8650 nM. On to `O=C1c2cccnc2C(=O)c2c1c(C(=O)NCCCN1CCCCC1)c1ccccn21`, for which the GI50 was 531 nM and the TGI was 1890 nM. For `CC(C)NCCCn1c(Sc2cc3c(cc2I)OCO3)nc2c(N)ncnc21` the same measures were 82.7 nM and 3620 nM.

For `OCC1OC(n2cnc3c(N/N=C\c4ccccn4)ncnc32)C(O)C1O` (stereo not drawn), the GI50 was 187 nM and the TGI came to 508 nM. For the compound `CNCCCNCCCCNCCCN1C(=O)c2ccc3c4c(ccc(c24)C1=O)C(=O)N(CCCNCc1ccccc1OC)C3=O`, the GI50 is 1890 nM and the TGI turned out to be 11700 nM. In the case of `C1CCC([PH+](C2CCCCC2)C2CCCCC2[PH+](C2CCCCC2)C2CCCCC2)CC1.[Au].[CH-]1CCCCC1CC1CCCC[N-]1` (stereo not drawn), the GI50 is 161 nM and the TGI worked out at 631 nM.

For `N#Cc1c(N2CCOCC2)nc(=S)[nH]c1-c1ccco1`, the GI50 was 3510 nM and the TGI was more than 100000 nM. Turning to `CO[C@H]1CC(O[C@@H]2/C(C)=C/C[C@@H]3C[C@@H](C[C@]4(C=C[C@H](C)[C@@H](C5CCCCC5)O4)O3)OC(=O)[C@@H]3C=C(C)[C@@H](O)[C@H]4OC/C(=C\C=C\[C@@H]2C)[C@]43O)O[C@@H](C)C1O[C@H]1C[C@H](OC)[C@@H](O)[C@H](C)O1` (stereo partly drawn), the GI50 was 1400 nM and the TGI came to 3010 nM. In the case of `COc1ccc(-c2nc(Nc3cc(C)[nH]n3)c3ccccc3n2)cc1`, the GI50 is 3120 nM and the TGI was more than 53400 nM. Regarding `FC(F)(F)c1ccc(-c2cnc(-c3ncon3)nc2NC2CCCCCC2)cc1`, the GI50 is 48500 nM and the TGI was more than 100000 nM. Regarding `CN1CCN(C(=O)c2cc(-c3ccc4ncnc(N5CCc6cc(F)c(Cl)cc65)c4c3)cnc2N)CC1`, the GI50 was 120 nM and the TGI worked out at 365 nM. On to `CN1C(=O)N(C)C2C1NN=c1s/c(=C\c3ccc(C(F)(F)F)cc3)c(=O)n12` (stereo not drawn), for which the GI50 was 510 nM and the TGI was found to be 26200 nM. With `O=C(/C=C/c1cc2ccccc2[nH]c1=O)/C=C/c1cc2ccccc2[nH]c1=O`, the GI50 was 7330 nM and the TGI was 15500 nM. As for `O=C1CCC(N2Cc3cc(CNC(=O)C(F)(F)c4ccc(Cl)cc4)ccc3C2=O)C(=O)N1` (stereo not drawn), the GI50 is 48.1 nM.

On to `CCCN(CCS(C)(=O)=O)Cc1ccc(-c2ccc3ncnc(Nc4ccc(OCc5cccc(F)c5)c(Cl)c4)c3c2)o1`, for which the GI50 was 75.2 nM and the TGI came out at 877 nM. As to `COc1ccc(-c2[nH]c3ccccc3c2-c2ccc(OC)cc2)cc1`, the GI50 was 2430 nM and the TGI was 7180 nM. Turning to `CCCCCCCCCCCCCCCCCC1=NCCN1CCOC1=C(Cl)C(=O)c2ccccc2C1=O`, the GI50 is 1640 nM and the TGI stood at 3270 nM. For `C[C@@H]1CN(Cc2ccc(F)cc2)[C@@H](C)CN1C(=O)c1cc2c(C(=O)C(=O)N(C)C)cn(C)c2cc1Cl`, the GI50 was 13300 nM and the TGI came out at 45000 nM. The like results for `O=S(=O)(c1ccc(Cl)cc1)C(Cl)(Cl)Cl` were, in that order, 1440 nM and 5500 nM. Take `O=C1OCC2=C1C(c1ccc(Cl)c(Cl)c1)c1cc3c(cc1N2CCO)OCCO3` (stereo not drawn): the GI50 was 95 nM and the TGI was determined as 394 nM. As to `Nc1nc(OCc2ccccc2)c2[nH]cnc2n1`, the GI50 is 28100 nM and 34900 nM; the TGI was 207000 nM. Turning to `O=C1/C(=C/c2ccccc2[N+](=O)[O-])Cc2ccccc21`, the GI50 was 1380 nM and the TGI was found to be 3030 nM. The like results for `COc1cc2c(cc1OCCCn1c(-c3ccccn3)nc3ccccc31)N=C[C@@H]1CCCN1C2=O` were, in that order, 1940 nM and 5640 nM. As to `CN1CCN(Cc2ccc(NC(=O)c3cncc(C#Cc4cnc(N)nc4)c3)cc2C(F)(F)F)CC1`, the GI50 was 684 nM and the TGI came out at 7660 nM. As for `O=C(/C=C\c1cccc([N+](=O)[O-])c1)/C=C/c1cccc([N+](=O)[O-])c1`, the GI50 was 3430 nM and the TGI was 55500 nM. For `O=C(Nc1ccc(OCc2nnc(-c3ccc(Cl)cc3)o2)c(F)c1)Nc1ccc(Cl)c(C(F)(F)F)c1`, the GI50 is 1800 nM and the TGI turned out to be 7370 nM.

Turning to `COc1ccc2c(c1)N(CCO)C1=C(C(=O)OC1)C2c1cccc(F)c1` (stereo not drawn), the GI50 was 202 nM. For the compound `CN=c1ccc2nc3ccc(N)cc3sc-2c1`, the GI50 was 2900 nM and the TGI turned out to be 17100 nM.
